Measurements: patent US8796321B2, “Compounds, compositions and methods comprising oxadiazole derivatives” (PATH Drug Solutions, priority 2008, dated 2014)

System: cholera toxin (CTX) induced net fluid secretion in intestinal loops
Parameters: species or system mice (CD1 strain)
Details: mouse, in vivo

Point of comparison: CC(C)(C)C(=O)CN(Cc1cccc(C(F)(F)F)c1)C(=O)c1nc(-c2cc(Br)c(O)c(Br)c2)no1 [compound 1, 3-(3,5-dibromo-4-hydroxyphenyl)-N-(3,3-dimethyl-2-oxobutyl)-N-(3-(trifluoromethyl)benzyl)-1,2,4-oxadiazole-5-carboxamide], “closed loop % inhibition @ 10 μg” value 69.4%. Against it:
- O=C(NCc1ccc(Oc2ccccc2)cc1)c1nc(-c2cc(Br)c(O)c(Br)c2)no1 [compound 13, 3-(3,5-dibromo-4-hydroxyphenyl)-N-(4-phenoxybenzyl)-1,2,4-oxadiazole-5-carboxamide] — higher, 88.6%

Point of comparison: O=C(NCc1cc(F)cc(F)c1)c1noc(-c2cc(Cl)c(O)c(Cl)c2)n1 [compound 112, 5-(3,5-dichloro-4-hydroxyphenyl)-N-(3,5-difluorobenzyl)-1,2,4-oxadiazole-3-carboxamide], “closed loop % inhibition @ 100 μg” value 51%. Against it:
- CC(C)(C)C(=O)CN(Cc1cccc(C(F)(F)F)c1)C(=O)c1nc(-c2cc(Br)c(O)c(Br)c2)no1 [compound 1, 3-(3,5-dibromo-4-hydroxyphenyl)-N-(3,3-dimethyl-2-oxobutyl)-N-(3-(trifluoromethyl)benzyl)-1,2,4-oxadiazole-5-carboxamide] — higher, 87.1%
- O=C(NCc1ccc(Oc2ccccc2)cc1)c1nc(-c2cc(Br)c(O)c(Br)c2)no1 [compound 13, 3-(3,5-dibromo-4-hydroxyphenyl)-N-(4-phenoxybenzyl)-1,2,4-oxadiazole-5-carboxamide] — higher, 94.7%
- O=C(NCc1cccc(OC(F)(F)F)c1)c1noc(-c2cc(Br)c(O)c(Br)c2)n1 [compound 65, 5-(3,5-dibromo-4-hydroxyphenyl)-N-(3-(trifluoromethoxy)benzyl)-1,2,4-oxadiazole-3-carboxamide] — higher, 94.6%
- O=C(NCc1cccc(OC(F)(F)F)c1)c1noc(-c2cc(Cl)c(O)c(Cl)c2O)n1 [compound 120, 5-(3,5-dichloro-2,4-dihydroxyphenyl)-N-(3-(trifluoromethoxy)benzyl)-1,2,4-oxadiazole-3-carboxamide] — higher, 62.3%
